# Values of other authors in patent US8445528B2, “Dendrimer conjugates” (priority 2008, dated 2013).
# Conditions: more cytotoxic than IRINOTECAN
smiles,measurement,value
"CC[C@@]1(O)C(=O)OCc2c1cc1n(c2=O)Cc2cc3cc(O)ccc3nc2-1 [SN-38, 10-hydroxycamptothecin]",cytotoxicity relative to IRINOTECAN,1000 fold
